Data published in US20030118627A1 (DABUR RESEARCH FOUNDATION, priority 2001, published 2003).

Legend:
MOLT 4 = assay: MTT cytotoxicity assay, MOLT 4 leukemia; type: cell-based; conditions: Homo sapiens
Procedure: (§1) Briefly, a […] MTT cytotoxicity assay was performed, which is based on the principle of uptake of MTT (3-(4,5-dimethylthiazol-2-yl)-2,5-diphenyl tetrazolium bromide), a tetrazolium salt, by the metabolically active cells where it is metabolized by active mitochondria into a blue colored formazan product that is read spectrophoto-metrically. MTT was dissolved in phosphate buffered saline with a pH of 7.4 to obtain an MTT concentration of 5 mg/ml; the resulting mixture was filtered through a 0.22 micron filter to sterilize and remove a small amount of insoluble residue. For each type of tumor cell, 20,000 to 50,000 cells were seeded in a 96-well culture plate and incubated with the combination in a CO2 incubator for 24 hours. […] The assay was terminated after 24 hours by adding 100 ug (20 ul) of MTT to each well, then incubating for additional one hour, and finally adding 50 ul of 10% SDS-0.01N HCl to each well to lyse the cells and dissolve formazan. After incubating for one hour, the plate was read spectrophotometrically at 540 nm and the percentage cytotoxicity calculated.

U87MG = assay: MTT cytotoxicity assay, U87MG glioblastoma; type: cell-based; conditions: Homo sapiens, U-87 MG, 24 h, read-out: ED50 values of cytotoxicity
Procedure: as §1

Hep2 = assay: MTT cytotoxicity assay, Hep2 larynx; type: cell-based; conditions: Homo sapiens, HEp-2, 24 h, read-out: ED50 values of cytotoxicity
Procedure: as §1

KB = assay: MTT cytotoxicity assay, KB oral; type: cell-based; conditions: Homo sapiens, 24 h, read-out: ED50 values of cytotoxicity
Procedure: as §1

Swiss albino mice = conditions: both, mouse, in vivo, po, 15 days
Procedure: Acute toxicity studies were performed using the oral route of administration.
A batch of 5 female and 5 male mice each was administered the test substance by oral route. […] Another batch of 5 female and 5 male served as control.
Observations were made three times on the day of dosing and twice daily thereafter for the remainder of 14 days or until reversible toxic signs or symptoms subsided. All gross visible toxic signs and symptoms were recorded. Body weights were recorded prior to dosing and weekly thereafter.

MCF7 = assay: MTT cytotoxicity assay, MCF7 breast; type: cell-based; conditions: Homo sapiens
Procedure: as §1

293 = assay: MTT cytotoxicity assay, 293 kidney; type: cell-based; conditions: Homo sapiens, HEK293, 24 h, read-out: ED50 values of cytotoxicity
Procedure: as §1

PA 1 = assay: MTT cytotoxicity assay, PA 1 ovary; type: cell-based; conditions: Homo sapiens
Procedure: as §1

PTC = assay: MTT cytotoxicity assay, PTC colon; type: cell-based; conditions: Homo sapiens
Procedure: as §1

Miapaca2 = assay: MTT cytotoxicity assay, Miapaca2 pancreas; type: cell-based; conditions: Homo sapiens
Procedure: as §1

L132 = assay: MTT cytotoxicity assay, L132 lung; type: cell-based; conditions: Homo sapiens
Procedure: as §1

DU145 = assay: MTT cytotoxicity assay, DU145 prostate; type: cell-based; conditions: Homo sapiens
Procedure: as §1

INT 407 = assay: MTT cytotoxicity assay, INT 407 intestine; type: cell-based; conditions: Homo sapiens, 24 h, read-out: ED50 values of cytotoxicity
Procedure: as §1

[1] = 1.0 mM, read-out: Percent cytotoxicity
[2] = 2.5 mM, read-out: Percent cytotoxicity
[3] = 4 mM, read-out: Percent cytotoxicity
[4] = 5 mM, read-out: Percent cytotoxicity
[5] = 10 mM, read-out: Percent cytotoxicity
[6] = 24 h, read-out: ED50 values of cytotoxicity

Structure (SMILES): CCCCOC(=O)C1CCC(=O)N1C(O)C(C)=O (centres unmarked) [MGC-2, N-(1-hydroxy-2-ketopropyl)-butylpyroglutamate]
- IC50 (MOLT 4; 24 h, Molt 4 Leukemia, read-out: ED50 values of cytotoxicity): < 1000 µM
- cytotoxicity at 1000 µM (MOLT 4; MOLT 4 Leukemia, 1.0 mM, read-out: Percent cytotoxicity): 75.9%
- cytotoxicity at 2500 µM (MOLT 4; MOLT 4 Leukemia, 2.5 mM, read-out: Percent cytotoxicity): 85.9 ± 6.3%
- cytotoxicity at 4000 µM (MOLT 4; MOLT 4 Leukemia, 4 mM, read-out: Percent cytotoxicity): 87.8 ± 5%
- cytotoxicity at 5000 µM (MOLT 4; MOLT 4 Leukemia, 5 mM, read-out: Percent cytotoxicity): 88.2 ± 5.9%
- cytotoxicity at 10000 µM (MOLT 4; MOLT 4 Leukemia, 10 mM, read-out: Percent cytotoxicity): 90.2 ± 7.2%
- IC50 (U87MG): 3150 ± 1100 µM
- IC50 (Hep2): 2000 ± 300 µM
- IC50 (KB): 2600 ± 500 µM
- safe dose (Swiss albino mice): 75 mg
- IC50 (MCF7; MCF7, 24 h, MCF 7 Breast, read-out: ED50 values of cytotoxicity): 2500 ± 400 µM
- cytotoxicity at 1000 µM (MCF7; MCF7 breast, 1.0 mM, read-out: Percent cytotoxicity): 34.7%
- cytotoxicity at 2500 µM (MCF7; MCF7 breast, 2.5 mM, read-out: Percent cytotoxicity): 50.6 ± 4.1%
- cytotoxicity at 4000 µM (MCF7; MCF7 breast, 4 mM, read-out: Percent cytotoxicity): 57.9 ± 4.8%
- cytotoxicity at 5000 µM (MCF7; MCF7 breast, 5 mM, read-out: Percent cytotoxicity): 67.9 ± 4%
- cytotoxicity at 10000 µM (MCF7; MCF7 breast, 10 mM, read-out: Percent cytotoxicity): 78.9 ± 5.2%
- IC50 293: 2000 ± 800 µM
- IC50 (PA 1; 24 h, PA 1 Ovarian, read-out: ED50 values of cytotoxicity): 1200 ± 200 µM
- cytotoxicity at 2500 µM (PA 1; PA 1 Ovary, 2.5 mM, read-out: Percent cytotoxicity): 57.9 ± 4.5%
- cytotoxicity at 4000 µM (PA 1; PA 1 Ovary, 4 mM, read-out: Percent cytotoxicity): 67.9 ± 5.4%
- cytotoxicity at 5000 µM (PA 1; PA 1 Ovary, 5 mM, read-out: Percent cytotoxicity): 84.9 ± 4.8%
- cytotoxicity at 10000 µM (PA 1; PA 1 Ovary, 10 mM, read-out: Percent cytotoxicity): 87.9 ± 6.3%
- cytotoxicity at 1000 µM (PTC; [1]): 45.8%
- cytotoxicity at 2500 µM (PTC; [2]): 68.9 ± 5.3%
- cytotoxicity at 4000 µM (PTC; [3]): 85.9 ± 6.2%
- cytotoxicity at 5000 µM (PTC; [4]): 88.8 ± 5.3%
- cytotoxicity at 10000 µM (PTC; [5]): 86.9 ± 5%
- IC50 (PTC; [6]): 1600 ± 100 µM
- cytotoxicity at 1000 µM (Miapaca2; MIA PaCa-2, 1.0 mM, read-out: Percent cytotoxicity): 34.8%
- cytotoxicity at 2500 µM (Miapaca2; MIA PaCa-2, 2.5 mM, read-out: Percent cytotoxicity): 64.9 ± 5.9%
- cytotoxicity at 4000 µM (Miapaca2; MIA PaCa-2, 4 mM, read-out: Percent cytotoxicity): 74.9 ± 3.8%
- cytotoxicity at 5000 µM (Miapaca2; MIA PaCa-2, 5 mM, read-out: Percent cytotoxicity): 76.9 ± 4%
- cytotoxicity at 10000 µM (Miapaca2; MIA PaCa-2, 10 mM, read-out: Percent cytotoxicity): 84.9 ± 6.3%
- IC50 (Miapaca2; MIA PaCa-2, 24 h, read-out: ED50 values of cytotoxicity): 1700 ± 600 µM
- cytotoxicity at 1000 µM (L132; [1]): 34.8%
- cytotoxicity at 2500 µM (L132; [2]): 58.5 ± 3.6%
- cytotoxicity at 4000 µM (L132; [3]): 62.9 ± 2.9%
- cytotoxicity at 5000 µM (L132; [4]): 87.8 ± 5.8%
- cytotoxicity at 10000 µM (L132; [5]): 88.6 ± 3%
- IC50 (L132; [6]): 1900 ± 800 µM
- cytotoxicity at 1000 µM (DU145; DU-145, 1.0 mM, read-out: Percent cytotoxicity): 43.9%
- cytotoxicity at 2500 µM (DU145; DU-145, 2.5 mM, read-out: Percent cytotoxicity): 53.9 ± 3.8%
- cytotoxicity at 4000 µM (DU145; DU-145, 4 mM, read-out: Percent cytotoxicity): 58.9 ± 4.3%
- cytotoxicity at 5000 µM (DU145; DU-145, 5 mM, read-out: Percent cytotoxicity): 67.9 ± 5.2%
- cytotoxicity at 10000 µM (DU145; DU-145, 10 mM, read-out: Percent cytotoxicity): 86.9 ± 6.9%
- IC50 (DU145; DU-145, 24 h, read-out: ED50 values of cytotoxicity): 1600 ± 100 µM
- IC50 (INT 407): 2700 ± 800 µM
